This assay has as its system MV-4-11 cells. Nature of the assay: Gene expression microarray analysis (Affymetrix PrimeView) and GSEA. It counts as cell-based, human. Details: RFU PODN (11730768_x_at) / Fold change /veh PODN (11730768_x_at) / RFU LINC00158 (11744669_a_at) / Fold change /veh LINC00158 (11744669_a_at) / RFU DUSP10 (11751237_a_at) / Fold change /veh DUSP10 (11751237_a_at) / RFU ID3 (11757404_x_at) / Fold change /veh ID3 (11757404_x_at) / RFU PLEKHG5 (11737974_s_at) / Fold change /veh PLEKHG5 (11737974_s_at) / RFU LRRC4B (11730491_at) / Fold change /veh LRRC4B (11730491_at) / RFU GIMAP4 (11747438_a_at) / Fold change /veh GIMAP4 (11747438_a_at) / RFU KRT8 (11758183_x_at) / Fold change /veh KRT8 (11758183_x_at) / RFU CNN1 (11734310_a_at) / Fold change /veh CNN1 (11734310_a_at) / RFU VPS37D (11726825_at) / Fold change /veh VPS37D (11726825_at) / RFU C10orf10 (11716522_x_at) / Fold change /veh C10orf10 (11716522_x_at) / RFU KIR2DL2 /// KIR2DL4 /// KIR2DL5A /// KIR2DL5B /// KIR2DS1 /// KIR2DS2 /// KIR2DS3 /// KIR2DS4 /// KIR3DL3 /// KIR3DL3 /// KIR3DS1 (11738374_at) / Fold change /veh KIR2DL2 /// KIR2DL4 /// KIR2DL5A /// KIR2DL5B /// KIR2DS1 /// KIR2DS2 /// KIR2DS3 /// KIR2DS4 /// KIR3DL3 /// KIR3DL3 /// KIR3DS1 (11738374_at) / RFU C1QL1 (11718748_at) / Fold change /veh C1QL1 (11718748_at) / RFU TMPRSS4 (11747572_a_at) / Fold change /veh TMPRSS4 (11747572_a_at) / RFU HAMP (11756126_x_at) / Fold change /veh HAMP (11756126_x_at) / RFU RNFT2 (11725882_a_at) / Fold change /veh RNFT2 (11725882_a_at) / RFU NR4A2 (11747474_a_at) / Fold change /veh NR4A2 (11747474_a_at) / RFU ABCC12 (11746883_a_at) / Fold change /veh ABCC12 (11746883_a_at) / RFU TMEM136 (11760407_x_at) / Fold change /veh TMEM136 (11760407_x_at) / RFU CLDN22 /// WWC2 (11732394_at) / Fold change /veh CLDN22 /// WWC2 (11732394_at) / RFU HLA-DPB1 (11760878_x_at) / Fold change /veh HLA-DPB1 (11760878_x_at) / RFU SPINT1 (11716480_a_at) / Fold change /veh SPINT1 (11716480_a_at) / RFU GAP43 (11754022_s_at) / Fold change /veh GAP43 (11754022_s_at) / RFU A4GNT (11735810_at) / Fold change /veh A4GNT (11735810_at) / RFU PRB3 (11715151_x_at) / Fold change /veh PRB3 (11715151_x_at) / RFU TUBB4B (11761932_at) / Fold change /veh TUBB4B (11761932_at) / RFU CAPN14 (11732068_a_at) / Fold change /veh CAPN14 (11732068_a_at) / RFU TMCC2 (11721928_a_at) / Fold change /veh TMCC2 (11721928_a_at) / RFU IRGQ (11745062_a_at) / Fold change /veh IRGQ (11745062_a_at) / RFU FAM174B (11720279_a_at) / Fold change /veh FAM174B (11720279_a_at) / RFU TMPRSS4 (11748680_a_at) / Fold change /veh TMPRSS4 (11748680_a_at) / RFU FAM212B (11763350_a_at) / Fold change /veh FAM212B (11763350_a_at) / RFU PLEKHG5 (11743358_a_at) / Fold change /veh PLEKHG5 (11743358_a_at) / RFU ZSCAN30 (11745921_a_at) / Fold change /veh ZSCAN30 (11745921_a_at) / RFU CMKLR1 (11741424_a_at) / Fold change /veh CMKLR1 (11741424_a_at) / RFU LOC101060620 /// MAPK8IP1 (11723275_at) / Fold change /veh LOC101060620 /// MAPK8IP1 (11723275_at) / RFU SPTSSB (11747773_x_at) / Fold change /veh SPTSSB (11747773_x_at) / RFU PRSS12 (11739890_at) / Fold change /veh PRSS12 (11739890_at) / RFU BIN1 (11741810_x_at) / Fold change /veh BIN1 (11741810_x_at) / RFU WNT11 (11732464_a_at) / Fold change /veh WNT11 (11732464_a_at) / RFU C10orf10 (11716521_a_at) / Fold change /veh C10orf10 (11716521_a_at) / RFU C5orf56 (11738089_at) / Fold change /veh C5orf56 (11738089_at) / RFU CYB561 (11721691_x_at) / Fold change /veh CYB561 (11721691_x_at) / RFU ANKRD19P (11752326_a_at) / Fold change /veh ANKRD19P (11752326_a_at) / RFU OR2T12 /// OR2T33 /// OR2T8 (11738714_s_at) / Fold change /veh OR2T12 /// OR2T33 /// OR2T8 (11738714_s_at) / RFU VCAN (11748164_a_at) / Fold change /veh VCAN (11748164_a_at) / RFU JSRP1 (11732532_at) / Fold change /veh JSRP1 (11732532_at) / RFU KRTAP10-11 (11738290_x_at) / Fold change /veh KRTAP10-11 (11738290_x_at) / RFU MYO3A (11730013_a_at) / Fold change /veh MYO3A (11730013_a_at) / RFU EBF3 (11725865_a_at) / Fold change /veh EBF3 (11725865_a_at) / RFU CAMK2N1 (11719241_x_at) / Fold change /veh CAMK2N1 (11719241_x_at) / RFU C5orf56 (11738088_a_at) / Fold change /veh C5orf56 (11738088_a_at) / RFU OLFML3 (11715873_a_at) / Fold change /veh OLFML3 (11715873_a_at) / RFU LOC100653217 /// NTM (11731650_a_at) / Fold change /veh LOC100653217 /// NTM (11731650_a_at) / RFU MAPK11 (11762145_a_at) / Fold change /veh MAPK11 (11762145_a_at) / RFU FIZ1 (11724087_x_at) / Fold change /veh FIZ1 (11724087_x_at) / RFU OASL (11726364_x_at) / Fold change /veh OASL (11726364_x_at) / RFU SOX15 (11748057_x_at) / Fold change /veh SOX15 (11748057_x_at) / RFU CD79A (11719716_a_at) / Fold change /veh CD79A (11719716_a_at) / RFU HIST1H1D (11736915_at) / Fold change /veh HIST1H1D (11736915_at) / RFU CASKIN2 (11723855_a_at) / Fold change /veh CASKIN2 (11723855_a_at) / RFU LOC730098 (11760151_x_at) / Fold change /veh LOC730098 (11760151_x_at) / RFU OR4N2 (11742367_at) / Fold change /veh OR4N2 (11742367_at) / RFU PRRT2 (11749266_a_at) / Fold change /veh PRRT2 (11749266_a_at) / RFU SNX32 (11753110_a_at) / Fold change /veh SNX32 (11753110_a_at) / RFU CDHR5 (11726645_a_at) / Fold change /veh CDHR5 (11726645_a_at) / RFU RCAN1 (11760418_a_at) / Fold change /veh RCAN1 (11760418_a_at) / RFU FAM167A (11723789_a_at) / Fold change /veh FAM167A (11723789_a_at) / RFU FAM26E (11764081_at) / Fold change /veh FAM26E (11764081_at) / RFU ISYNA1 (11749810_s_at) / Fold change /veh ISYNA1 (11749810_s_at) / RFU ACY1 (11761880_at) / Fold change /veh ACY1 (11761880_at) / RFU 11764098_at / Fold change /veh 11764098_at / RFU SAMD14 (11745864_x_at) / Fold change /veh SAMD14 (11745864_x_at) / RFU NPB (11741838_a_at) / Fold change /veh NPB (11741838_a_at) / RFU TMPRSS6 (11731388_a_at) / Fold change /veh TMPRSS6 (11731388_a_at) / RFU KRTAP10-2 (11738614_at) / Fold change /veh KRTAP10-2 (11738614_at) / RFU ARHGAP8 /// PRR5-ARHGAP8 (11727945_x_at) / Fold change /veh ARHGAP8 /// PRR5-ARHGAP8 (11727945_x_at) / RFU KRTAP5-7 /// NADSYN1 (11734609_at) / Fold change /veh KRTAP5-7 /// NADSYN1 (11734609_at) / RFU RASL12 (11751679_a_at) / Fold change /veh RASL12 (11751679_a_at) / RFU CDKN2B (11736163_a_at) / Fold change /veh CDKN2B (11736163_a_at) / RFU PRF1 (11729649_at) / Fold change /veh PRF1 (11729649_at) / RFU, ZNF638 /// ZNF638-IT1 / Fold change vs veh, ZNF638 /// ZNF638-IT1 / RFU, PANK3 / Fold change vs veh, PANK3 / RFU, SH3YL1 / Fold change vs veh, SH3YL1 / RFU, ZEB2 / Fold change vs veh, ZEB2 / RFU, NRIP1 / Fold change vs veh, NRIP1 / RFU, PTTG1IP / Fold change vs veh, PTTG1IP / RFU, CAPN2 / Fold change vs veh, CAPN2 / RFU, MED14 / Fold change vs veh, MED14 / RFU, SNORA58 / Fold change vs veh, SNORA58 / RFU, C1orf63 / Fold change vs veh, C1orf63 / RFU, LRRFIP1 / Fold change vs veh, LRRFIP1 / RFU, NDUFAF7 / Fold change vs veh, NDUFAF7 / RFU, SLC12A2 / Fold change vs veh, SLC12A2 / RFU, IBTK / Fold change vs veh, IBTK / RFU, ESF1 / Fold change vs veh, ESF1 / Fold change vs veh, TMEM50B / RFU, TAOK1 / Fold change vs veh, TAOK1 / RFU, ACBD3 / Fold change vs veh, ACBD3 / RFU, TMA16 / Fold change vs veh, TMA16 / RFU, RWDD3 / Fold change vs veh, RWDD3 / RFU, BCAT1 / Fold change vs veh, BCAT1 / RFU, EDEM3 / Fold change vs veh, EDEM3 / RFU, TMEM33 / Fold change vs veh, TMEM33 / RFU, WDR75 / Fold change vs veh, WDR75 / RFU, AHCTF1 / Fold change vs veh, AHCTF1 / RFU, TFRC / Fold change vs veh, TFRC / RFU, ZDHHC17 / Fold change vs veh, ZDHHC17 / RFU, NOM1 / Fold change vs veh, NOM1 / RFU, ARL8B / Fold change vs veh, ARL8B / RFU, ZBTB11 / Fold change vs veh, ZBTB11 / RFU, TAMM41 / Fold change vs veh, TAMM41 / RFU, KIAA1704 /// LOC100996395 / Fold change vs veh, KIAA1704 /// LOC100996395 / RFU, ING1 / Fold change vs veh, ING1 / RFU, TRMT61B / Fold change vs veh, TRMT61B / RFU, FUBP3 / Fold change vs veh, FUBP3 / RFU, TP53 / Fold change vs veh, TP53 / RFU, TNKS2 / Fold change vs veh, TNKS2 / RFU, ZFP14 / Fold change vs veh, ZFP14 / RFU, ACTR2 / Fold change vs veh, ACTR2 / RFU, PPP3R1 / Fold change vs veh, PPP3R1 / RFU, PIK3R1 / Fold change vs veh, PIK3R1 / RFU, HNRNPA1 / Fold change vs veh, HNRNPA1 / RFU, RNF170 / Fold change vs veh, RNF170 / RFU, ZNF28 / Fold change vs veh, ZNF28 / RFU, RNGTT / Fold change vs veh, RNGTT / RFU, OGT / Fold change vs veh, OGT / RFU, BRD1 / Fold change vs veh, BRD1 / RFU, MARS / Fold change vs veh, MARS / RFU, ZNF655 / Fold change vs veh, ZNF655 / RFU, FAHD1 / Fold change vs veh, FAHD1 / RFU, BDP1 / Fold change vs veh, BDP1 / RFU, LRRCC1 / Fold change vs veh, LRRCC1 / RFU, ARID1A / Fold change vs veh, ARID1A / RFU, ZNF146 / Fold change vs veh, ZNF146 / RFU, ZNF330 / Fold change vs veh, ZNF330 / RFU, GPN3 / Fold change vs veh, GPN3 / RFU, C9orf123 / Fold change vs veh, C9orf123 / RFU, N4BP2L2 / Fold change vs veh, N4BP2L2 / RFU, ARFIP1 / Fold change vs veh, ARFIP1 / RFU, FAM179B / Fold change vs veh, FAM179B / RFU, BCL10 / Fold change vs veh, BCL10 / RFU, UHRF1BP1L / Fold change vs veh, UHRF1BP1L / RFU, BET1 / Fold change vs veh, BET1 / RFU, CNOT2 / Fold change vs veh, CNOT2 / RFU, ZNF268 / Fold change vs veh, ZNF268 / Fold change vs veh, ZNF507 / RFU, DGCR2 / Fold change vs veh, DGCR2 / RFU, WDSUB1 / Fold change vs veh, WDSUB1 / Fold change vs veh, HSP90B1 /// MIR3652 / RFU, ADSS / Fold change vs veh, ADSS / RFU, GK / Fold change vs veh, GK / RFU, ZNF148 / Fold change vs veh, ZNF148 / RFU, TAF9 / Fold change vs veh, TAF9 / RFU, SLC1A5 / Fold change vs veh, SLC1A5 / RFU, SLMO2 / Fold change vs veh, SLMO2 / RFU, ABCC4 / Fold change vs veh, ABCC4 / RFU, LOC101060439 /// RAP1B / Fold change vs veh, LOC101060439 /// RAP1B / RFU, RFX7 / Fold change vs veh, RFX7 / RFU, GTPBP10 / Fold change vs veh, GTPBP10 / RFU, CNEP1R1 / Fold change vs veh, CNEP1R1 / RFU, BIVM-ERCC5 /// ERCC5 / Fold change vs veh, BIVM-ERCC5 /// ERCC5 / RFU, ILF3 / Fold change vs veh, ILF3 / RFU 11762660_at / Fold change /veh 11762660_at / RFU VCAN (11757783_s_at) / Fold change /veh VCAN (11757783_s_at) / RFU DDX43 (11728927_at) / Fold change /veh DDX43 (11728927_at) / RFU KRT8 (11758188_x_at) / Fold change /veh KRT8 (11758188_x_at) / RFU NKD1 (11759106_at) / Fold change /veh NKD1 (11759106_at) / RFU SRD5A1 (11742802_a_at) / Fold change /veh SRD5A1 (11742802_a_at) / RFU TPSAB1 /// TPSB2 (11721975_s_at) / Fold change /veh TPSAB1 /// TPSB2 (11721975_s_at) / RFU GSTM3 (11746129_a_at) / Fold change /veh GSTM3 (11746129_a_at) / RFU IL23R (11737362_x_at) / Fold change /veh IL23R (11737362_x_at) / RFU TMEM51 (11727254_a_at) / Fold change /veh TMEM51 (11727254_a_at) / RFU PIWIL2 (11732686_x_at) / Fold change /veh PIWIL2 (11732686_x_at) / RFU ORM1 (11744905_x_at) / Fold change /veh ORM1 (11744905_x_at) / RFU CCDC152 (11743942_at) / Fold change /veh CCDC152 (11743942_at) / RFU ECM1 (11717891_a_at) / Fold change /veh ECM1 (11717891_a_at) / RFU IL23R (11748794_a_at) / Fold change /veh IL23R (11748794_a_at) / RFU TNFAIP8L3 (11732012_x_at) / Fold change /veh TNFAIP8L3 (11732012_x_at) / RFU MBOAT4 (11741988_at) / Fold change /veh MBOAT4 (11741988_at) / RFU 11764193_at / Fold change /veh 11764193_at / RFU TMEM53 (11763286_at) / Fold change /veh TMEM53 (11763286_at) / RFU MAGEB2 (11727129_at) / Fold change /veh MAGEB2 (11727129_at) / RFU TMEM200A (11744735_a_at) / Fold change /veh TMEM200A (11744735_a_at) / RFU CCDC152 (11751479_a_at) / Fold change /veh CCDC152 (11751479_a_at) / RFU FAM211A (11726209_a_at) / Fold change /veh FAM211A (11726209_a_at) / RFU RGS16 (11746705_a_at) / Fold change /veh RGS16 (11746705_a_at) / RFU VCAN (11755009_s_at) / Fold change /veh VCAN (11755009_s_at) / RFU RHOB (11743442_s_at) / Fold change /veh RHOB (11743442_s_at) / RFU RGS16 (11720943_a_at) / Fold change /veh RGS16 (11720943_a_at) / RFU RGS16 (11720944_at) / Fold change /veh RGS16 (11720944_at) / RFU, VPS4B / Fold change vs veh, VPS4B / RFU, CREB1 / Fold change vs veh, CREB1 / RFU, DNAJC13 / Fold change vs veh, DNAJC13 / RFU, GNAQ / Fold change vs veh, GNAQ / RFU, CDK5R1 / Fold change vs veh, CDK5R1 / RFU, ZRANB3 / Fold change vs veh, ZRANB3 / RFU, CUL4A / Fold change vs veh, CUL4A / RFU, CCNY / Fold change vs veh, CCNY / RFU, UFL1 / Fold change vs veh, UFL1 / RFU, COG3 / Fold change vs veh, COG3 / RFU, DIAPH2 / Fold change vs veh, DIAPH2 / RFU, SKA2 / Fold change vs veh, SKA2 / RFU, AFF3 / Fold change vs veh, AFF3 / RFU, LMF1 / Fold change vs veh, LMF1 / RFU, IPO11 / Fold change vs veh, IPO11 / RFU, DFFB / Fold change vs veh, DFFB / RFU, FOXP1 / Fold change vs veh, FOXP1 / RFU, CARD8 / Fold change vs veh, CARD8 / RFU, STRN3 / Fold change vs veh, STRN3 / RFU, ADK / Fold change vs veh, ADK / RFU, RASSF2 / Fold change vs veh, RASSF2 / RFU, WIPF1 / Fold change vs veh, WIPF1 / RFU, LARP1B / Fold change vs veh, LARP1B / RFU, RASA1 / Fold change vs veh, RASA1 / RFU, RB1 / Fold change vs veh, RB1 / RFU, PPFIA1 / Fold change vs veh, PPFIA1 / RFU, MAT2A / Fold change vs veh, MAT2A / RFU, CCT5 / Fold change vs veh, CCT5 / RFU, WDR92 / Fold change vs veh, WDR92 / RFU, CUX1 / Fold change vs veh, CUX1 / RFU, TTC7A / Fold change vs veh, TTC7A / RFU, TMEM135 / Fold change vs veh, TMEM135 / RFU, DEPTOR / Fold change vs veh, DEPTOR / RFU, CPM / Fold change vs veh, CPM / RFU, DNAJB6 / Fold change vs veh, DNAJB6 / RFU, CACNA2D3 / Fold change vs veh, CACNA2D3 / RFU, DTX4 / Fold change vs veh, DTX4 / RFU, TFCP2 / Fold change vs veh, TFCP2 / RFU, GMCL1 /// GMCL1P1 / Fold change vs veh, GMCL1 /// GMCL1P1 / RFU, AEBP2 / Fold change vs veh, AEBP2 / RFU, SNHG1 /// SNORD22 /// SNORD25 /// SNORD26 /// SNORD27 /// SNORD28 /// SNORD29 /// SNORD31 / Fold change vs veh, SNHG1 /// SNORD22 /// SNORD25 /// SNORD26 /// SNORD27 /// SNORD28 /// SNORD29 /// SNORD31 / Fold change (Aza/veh), C12orf56 (ProbeSet 11735607_a_at) / Fold change (ACY-1035/veh), C12orf56 (ProbeSet 11735607_a_at) / Fold change (Aza/veh), FGFR1OP (ProbeSet 11751329_s_at) / Fold change (ACY-1035/veh), FGFR1OP (ProbeSet 11751329_s_at) / Fold change (Aza/veh), VPS36 (ProbeSet 11739960_a_at) / Fold change (ACY-1035/veh), VPS36 (ProbeSet 11739960_a_at) / RFU SYPL1 (11715823_x_at) / Fold change /veh SYPL1 (11715823_x_at) / RFU IGFBP7 (11715501_s_at) / Fold change /veh IGFBP7 (11715501_s_at) / RFU REEP3 (11722064_at) / Fold change /veh REEP3 (11722064_at) / RFU IGLL1 (11728026_x_at) / Fold change /veh IGLL1 (11728026_x_at): dose or concentration left out as unconfirmed. The following applies: ProbeSet 11758919_x_at; LIST D.

The source of these data is article PMC5218480 (PLoS ONE, 2017).

As for `Nc1ncn([C@@H]2O[C@H](CO)[C@@H](O)[C@H]2O)c(=O)n1` [azacitidine], the “Fold change vs veh, TFCP2” value is listed as 0.71.
